Assay results reported in PMC11641365, “Evaluation of In Vitro Biological Activity of Flavanone/Chromanone Derivatives: Molecular Analysis of Anticancer Mechanisms in Colorectal Cancer” (International Journal of Molecular Sciences, 2024).

Key:
[1] = system: human colon cancer cell lines: HCT 116, SW620, LoVo, Caco-2, and HT-29; assay: MTT cell viability assay, statements across the panel; format: cell-based; settings: Homo sapiens, range over the cancer cell lines, read-out: IC50 range against colon cancer cell lines
Protocol: The cytotoxic activity of the 3-benzylideneflavanones, 3-benzylidenechromanones derivatives (compounds 1, 2, 3, 4, 5) and 5′-(3-methoxyphenyl)-2-phenyl-4′,5′-dihydro-4H-spiro[chromano-3,3′-pirazol]-4-one (compound 3a) was evaluated using the MTT assay (4,5-dimethylthiazol-2-yl)-2,5-diphenyltetrazoliumbromide), a colorimetric method that quantifies cell viability. […] These IC50 values were subsequently used for all experiments investigating the anticancer activity of the flavanone/chromanone derivatives in this study.
(§1) Cell viability was determined using the metabolic microplate spectrophotometric assay with Methylthiazolyl diphenyltetrazolium bromide (MTT) (Sigma-Aldrich; St. Louis, MO, USA). The MTT method belongs to metabolic tests for determining cell viability and consists of measuring the absorbance of a violet solution of formazan, a product of the reduction of a water-soluble yellow MTT by oxidoreductive enzymes (mainly mitochondrial succinate dehydrogenase) of living cells. The amount of the reaction product (water-insoluble formazan crystals) is proportional to the number of living and metabolically active cells in the sample. In the case of damaged or dead cells, formazan is formed in smaller amounts, or it is not formed.
The appropriate number of cells for a given cell line (6–8 × 10^3 cells/mL) were seeded onto colorless, sterile 96-well microplates (Nunc, Roskilde, Denmark) in the number appropriate for a given cell line. After 24 h of culture, various concentrations of the studied compounds (10^−7–10^−5 M) freshly prepared in DMSO (final concentration DMS < 0.1%) and diluted with complete culture medium were added and incubated in a CO2 incubator for 24 h. After this time, the medium was removed; the cell monolayer was washed twice with sterile PBS solution; and fresh culture medium was added to the microplate wells. After 48 h of cell culture, the MTT test was performed. A volume of 50 μL of tetrazolium salt solution (final concentration 0.05 mg/mL) was added to each microplate well. The microplate was placed for 3–4 h (depending on the cell line) in a CO2 incubator. After incubation, 100 μL of DMSO was added to the wells of the microplate to dissolve the purple formazan crystals formed in the living cell environment. The absorbance of the formazan solution, after gentle mixing, was read at a wavelength of λ = 580 nm and a reference wavelength of λ = 720 nm (Biotek Power Wave HT, Biotek Instruments, Winooski, VT, USA). The percentage of living cells was calculated by comparing the absorbance value of the tested samples with the absorbance value of the control (cells not treated with compounds). The absorbance of the control was taken as 100%. […] Moreover, cisplatin (Sigma-Aldrich, St. Louis, MO, USA) was used as a reference compound, and identical incubation conditions were used as described above.

[2] = system: Caco-2; assay: MTT cell viability assay; format: cell-based, human; settings: Homo sapiens, Caco-2, 24 h, 24 h incubation with compound, mean ± SD of three experiments, read-out: Cytotoxic effect, IC50
Protocol: (§2) The cytotoxic activity of the 3-benzylideneflavanones, 3-benzylidenechromanones derivatives (compounds 1, 2, 3, 4, 5) and 5′-(3-methoxyphenyl)-2-phenyl-4′,5′-dihydro-4H-spiro[chromano-3,3′-pirazol]-4-one (compound 3a) was evaluated using the MTT assay (4,5-dimethylthiazol-2-yl)-2,5-diphenyltetrazoliumbromide), a colorimetric method that quantifies cell viability.
as §1
(§3) The appropriate number of cells for a given cell line (6–8 × 10^3 cells/mL) were seeded onto colorless, sterile 96-well microplates (Nunc, Roskilde, Denmark) in the number appropriate for a given cell line. After 24 h of culture, various concentrations of the studied compounds (10^−7–10^−5 M) freshly prepared in DMSO (final concentration DMS < 0.1%) and diluted with complete culture medium were added and incubated in a CO2 incubator for 24 h. After this time, the medium was removed; the cell monolayer was washed twice with sterile PBS solution; and fresh culture medium was added to the microplate wells. After 48 h of cell culture, the MTT test was performed. A volume of 50 μL of tetrazolium salt solution (final concentration 0.05 mg/mL) was added to each microplate well. The microplate was placed for 3–4 h (depending on the cell line) in a CO2 incubator. After incubation, 100 μL of DMSO was added to the wells of the microplate to dissolve the purple formazan crystals formed in the living cell environment. The absorbance of the formazan solution, after gentle mixing, was read at a wavelength of λ = 580 nm and a reference wavelength of λ = 720 nm (Biotek Power Wave HT, Biotek Instruments, Winooski, VT, USA). The percentage of living cells was calculated by comparing the absorbance value of the tested samples with the absorbance value of the control (cells not treated with compounds). The absorbance of the control was taken as 100%.

[3] = system: HT-29; assay: MTT cell viability assay; format: cell-based, human; settings: Homo sapiens, HT-29, 24 h, HT-29, 24 h incubation with compound, mean ± SD of three experiments, read-out: Cytotoxic effect, IC50
Protocol: as §2, §1, §3

[4] = system: HCT 116; assay: MTT cell viability assay; format: cell-based; settings: Homo sapiens, 24 h incubation with compound, mean ± SD of three experiments, read-out: Cytotoxic effect, IC50
Protocol: as §2, §1, §3

[5] = system: LoVo; assay: MTT cell viability assay; format: cell-based; settings: Homo sapiens, 24 h incubation with compound, mean ± SD of three experiments, read-out: Cytotoxic effect, IC50
Protocol: as §2, §1, §3

[6] = system: SW620; assay: MTT cell viability assay; format: cell-based; settings: Homo sapiens, SW-620, 24 h incubation with compound, mean ± SD of three experiments, read-out: Cytotoxic effect, IC50
Protocol: as §2, §1, §3

[7] = system: poly-ADP ribose polymerase (PARP); parameters: method as in PMID 35682740; settings: previous work of the authors; cited from earlier work

Question: For `CCN(CC)c1ccc(/C=C2/C(=O)c3ccccc3OC2c2ccccc2)cc1` (stereo not shown) [Compound 2], which IC50 [1] is on record?
Answer: The IC50 was 70 to 210 µM.

Question: And the IC50 [2]?
Answer: Its IC50 is over 250 µM.

Question: What about the IC50 [3] of the same compound?
Answer: Its IC50 is over 250 µM.

Question: And the IC50 [4]?
Answer: The IC50 was 192 ± 3.4 µM.

Question: And the IC50 [5]?
Answer: Its IC50 is 200 ± 6.6 µM.

Question: What about the IC50 [6] of the same compound?
Answer: Its IC50 is 211 ± 2.9 µM.

Question: Which results are given for `Cc1ccc(/C=C2/C(=O)c3ccccc3OC2c2ccccc2)cc1` (stereo not shown) [Compound 4]?
Answer: IC50 [1]: 70 to 210 µM; IC50 [2]: 156 ± 5.2 µM; IC50 [3]: 172 ± 4.2 µM; IC50 [4]: 113 ± 5.1 µM; IC50 [5]: 178 ± 4.4 µM; IC50 [6]: > 250 µM

Question: For `Cc1cccc(C2CC3(N=N2)C(=O)c2ccccc2OC3c2ccccc2)c1` (stereo not shown) [5′-(3-methylphenyl)-2-phenyl-4′,5′-dihydro-4H-spiro[chromano-3,3′-pirazol]-4-one], which “Interaction with PARP” value [7] is on record?
Answer: The value was “effectively interacted with poly-ADP ribose polymerase (PARP), leading to its inactivation and degradation”.
